Assay results: patent US20180186815A1, “PHARMACEUTICAL COMPOSITIONS, METHODS FOR THEIR PREPARATION AND THEIR USE IN THE TREATMENT OF CANCER” (Urifer Ltd., priority 2016, published 2018)
Read-outs that look alike come from different tables or passages of the source.

Legend:
Assay type in all cases: cell-based
[1] = tested on: colon cancer cell line HT29; assay: Growth profile / viability of HT29 colon cancer cells, XTT test; conditions: Homo sapiens, HT-29, 96 h, Control DMSO = 100%, read-out: percentage of viable cells, HT29
Description: (§1) The effect of the compounds Z522-XXX on the growth profile of cancer cells which express Fer was tested. The cells that were tested were: the colon cancer cell lines HT29 and HCT 116, RKO. The effect of each of the compounds on FS cells, a non malingnant fibroblastic cell line, was also studied.
(§2) Generally, cells were seeded in 96 wells microplates and were left to grow untreated overnight. Each of the compounds was dissolved in DMSO and was then added to each well in a final concentration of 5 μM. The concentration of DMSO in each well was 0.4% v/v. Untreated cells and cells subjected to 0.4% DMSO alone, served as controls. The percentage of viable cells in each well was determined 96 hours after compounds addition, using the XTT test (Berridge, M. V. et al, 2005).

[2] = tested on: colon cancer cell line RKO; assay: Growth profile / viability of RKO colon cancer cells, XTT test; conditions: 96 h, Control DMSO = 100%, read-out: percentage of viable cells, RKO
Description: as §1, §2

[3] = tested on: colon cancer cell line HCT 116; assay: Growth profile / viability of HCT116 colon cancer cells, XTT test; conditions: Homo sapiens, HCT-116, 96 h, Control DMSO = 100%, read-out: percentage of viable cells, HCT116
Description: as §1, §2

[4] = Viability of FS non malignant fibroblastic cells, XTT test; conditions: FS cells (non-malignant fibroblastic cell line), Control DMSO = 100%, read-out: percentage of viable cells, FS
Description: as §1, §2

SMILES | viability at 5 µM ([1]; first HT29 column) [%] | viability at 5 µM ([1]; second HT29 column) [%] | viability at 5 µM ([2]; first RKO column) [%] | viability at 5 µM ([2]; second RKO column) [%] | viability at 5 µM ([3]; first HCT116 column) [%] | viability at 5 µM ([3]; second HCT116 column) [%] | viability at 96 h, 5 µM ([4]; first FS column) [%] | viability at 96 h, 5 µM ([4]; second FS column) [%]
Cc1c(-c2ccc(N(C)CCO)cc2)nc2sc(N3CCC(C(=O)N4CCN(C)CC4)CC3)nn12 [Compound Z522-0197, 2-{methyl[4-(5-methyl-2-{4-[(4-methylpiperazin-1-yl)carbonyl]-piperidin-1-yl}-imidazo[2,1-b]-[1,3,4]thiadiazol-6-yl)phenyl]-amino}ethanol] | 102 | 110 | 111 | 117 | 95 | 108 | 113 | 104
O=C(C1CCN(c2nn3cc(-c4ccc(Cl)cc4)nc3s2)CC1)N1CCN(c2ccccn2)CC1 [Compound Z522-0200, 6-(4-chlorophenyl)-2-{4-[(4-pyridin-2-ylpiperazin-1-yl)carbonyl]piperidin-1-yl}imidazo[2,1-b][1,3,4]thiadiazole] | 92 | 98 | 81 | 78 | 94 | 88 | 95 | 103
CN(CCc1ccccn1)C(=O)C1CCN(c2nn3cc(-c4ccc(Cl)cc4)nc3s2)CC1 [Compound Z522-0203, 1-[6-(4-chlorophenyl)imidazo[2,1-b][1,3,4]thiadiazol-2-yl]-N-methyl-N-(2-pyridin-2-ylethyl) piperidine-4-carboxamide] | 74 | 88 | 48 | 48 | 75 | 75 | 90 | 94
O=C(C1CCN(c2nn3cc(-c4ccc(Cl)cc4)nc3s2)CC1)N1CCN(c2ncccn2)CC1 [Compound Z522-0204, 6-(4-chlorophenyl)-2-{4-[(4-pyrimidin-2-ylpiperazin-1-yl)carbonyl]piperidin-1-yl}imidazo[2,1-b][1,3,4]thiadiazole] | 105 | 97 | 92 | 76 | 97 | 110 | 96 | 93
CN(CCc1ccncc1)C(=O)C1CCN(c2nn3cc(-c4ccc(Cl)cc4)nc3s2)CC1 [Compound Z522-0205, 1-[6-(4-chlorophenyl)imidazo[2,1-b][1,3,4]thiadiazol-2-yl]-N-methyl-N-(2-pyridin-4-ylethyl) piperidine-4-carboxamide] | 88 | 85 | 52 | 62 | 78 | 71 | 88 | 111
Cc1ccc(C)n1CCN1CCN(C(=O)C2CCN(c3nn4cc(-c5ccc(Cl)cc5)nc4s3)CC2)CC1 [Compound Z522-0209, 6-(4-chlorophenyl)-2-[4-({4-[2-(2,5-dimethyl-1H-pyrrol-1-yl)ethyl]piperazin-1-yl}carbonyl)piperidin-1-yl]imidazo[2,1-b][1,3,4]thiadiazole] | 25 | 30 | 52 | 55 | 71 | 59 | 89 | 96
O=C(C1CCN(c2nn3cc(-c4ccc(Cl)cc4)nc3s2)CC1)N1CCCCC1CN1CCOCC1 (stereo not drawn) [Compound Z522-0213, 6-(4-chlorophenyl)-2-(4-{[2-(morpholin-4-ylmethyl)piperidin-1-yl]carbonyl}piperidin-1-yl)imidazo[2,1-b][1,3,4] thiadiazole] | 87 | 99 | 18 | 13 | 84 | 88 | 87 | 98
O=C(C1CCN(c2nn3cc(-c4ccc(Cl)cc4)nc3s2)CC1)N1CCCC(CN2CCOCC2)C1 (stereo not drawn) [Compound Z522-0214, 6-(4-chlorophenyl)-2-(4-{[3-(morpholin-4-ylmethyl)piperidin-1-yl]carbonyl}piperidin-1-yl)imidazo[2,1-b][1,3,4]thiadiazole] | 53 | 57 | 24 | 23 | 70 | 71 | 104 | 90
CN1CCN(C(=O)CN2CCN(C(=O)C3CCN(c4nn5cc(-c6ccc(Cl)cc6)nc5s4)CC3)CC2)CC1 [Compound Z522-0215, 6-(4-chlorophenyl)-2-[4-({4-[2-(4-methylpiperazin-1-yl)-2-oxoethyl]piperazin-1-yl}carbonyl)piperidin-1-yl]imidazo[2,1-b][1,3,4]thiadiazole] | 14 | 11 | 6 | 10 | 63 | 58 | 85 | 109
CN(C)CCNC(=O)CN(C)C(=O)C1CCN(c2nn3cc(-c4ccc(Cl)cc4)nc3s2)CC1 [Compound Z522-0216, 1-[6-(4-chlorophenyl)imidazo[2,1-b][1,3,4]thiadiazol-2-yl]-N^4-(2-[2-(dimethylamino)ethyl]amino-2-oxoethyl)-N^4-methyl-4-piperidinecarboxamide] | 10 | 11 | 0 | 2 | 68 | 86 | 86 | 93
O=C(C1CCN(c2nn3cc(-c4ccc(Cl)cc4)nc3s2)CC1)N1CCCN(c2ncccn2)CC1 [Compound Z522-0219, 6-(4-chlorophenyl)-2-{4-[(4-pyrimidin-2-yl-1,4-diazepan-1-yl)carbonyl]piperidin-1-yl}imidazo[2,1-b][1,3,4]thiadiazole] | 91 | 95 | 48 | 45 | 75 | 67 | 89 | 94
CC(C)c1ccc(-c2cn3nc(N4CCC(C(=O)N5CCN(c6ccccn6)CC5)CC4)sc3n2)cc1 [Compound Z522-0223, 6-(4-isopropyl-phenyl)-2-{4-[(4-pyridin-2-ylpiperazin-1-yl)carbonyl]piperidin-1-yl}imidazo[2,1-b][1,3,4]thiadiazole] | 83 | 89 | 64 | 81 | 75 | 80 | 87 | 92
CC(C)c1ccc(-c2cn3nc(N4CCC(C(=O)N(C)CCc5ccccn5)CC4)sc3n2)cc1 [Compound Z522-0226, 1-[6-(4-isopropylphenyl)imidazo[2,1-b][1,3,4]thiadiazol-2-yl]-N-methyl-N-(2-pyridin-2-ylethyl)piperidine-4-carboxamide] | 101 | 92 | 72 | 64 | 80 | 80 | 91 | 99
CC(C)c1ccc(-c2cn3nc(N4CCC(C(=O)N5CCN(c6ncccn6)CC5)CC4)sc3n2)cc1 [Compound Z522-0227, 6-(4-isopropyl-phenyl)-2-{4-[(4-pyrimidin-2-ylpiperazin-1-yl)carbonyl]piperidin-1-yl}imidazo[2,1-b][1,3,4]thiadiazole] | 91 | 91 | 63 | 63 | 72 | 84 | 89 | 91
CC(C)c1ccc(-c2cn3nc(N4CCC(C(=O)N(C)CCc5ccncc5)CC4)sc3n2)cc1 [Compound Z522-0228, 1-[6-(4-isopropylphenyl)imidazo[2,1-b][1,3,4]thiadiazol-2-yl]-N-methyl-N-(2-pyridin-4-ylethyl)piperidine-4-carboxamide] | 58 | 61 | 51 | 55 | 82 | 70 | 111 | 113
